This passage reports Ki results from BindingDB's records for PubMed 10454469 (Universidad De Sevilla, 1999).

The target of this assay is Gamma-aminobutyric acid receptor subunit alpha-1 (Rattus norvegicus, UniProt P62813).

Molecules are shown by their SMILES. “And” between values parts separate entries of the source, which are not always exact repeats. Identical values can stand only once.

Sequence of Gamma-aminobutyric acid receptor subunit alpha-1 (P62813 whole entry): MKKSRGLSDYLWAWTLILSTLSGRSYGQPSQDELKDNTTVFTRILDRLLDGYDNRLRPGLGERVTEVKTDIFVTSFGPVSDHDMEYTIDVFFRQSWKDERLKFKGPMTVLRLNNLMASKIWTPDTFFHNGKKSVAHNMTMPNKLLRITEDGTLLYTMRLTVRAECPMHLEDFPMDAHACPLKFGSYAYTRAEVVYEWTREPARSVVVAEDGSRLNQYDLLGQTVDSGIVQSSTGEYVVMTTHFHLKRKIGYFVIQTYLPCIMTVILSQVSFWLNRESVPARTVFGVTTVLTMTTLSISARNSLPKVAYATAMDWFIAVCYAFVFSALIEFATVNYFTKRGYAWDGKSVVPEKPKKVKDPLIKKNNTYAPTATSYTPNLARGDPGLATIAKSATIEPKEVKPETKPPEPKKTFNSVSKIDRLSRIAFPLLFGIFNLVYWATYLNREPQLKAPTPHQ

Regarding `Cc1nnc2ccc(-c3cccc(C(F)(F)F)c3)nn12`, the Ki is 0.7 nM and 0.81 nM.
